The source of these data is BindingDB's records for doi:10.1016/j.bmcl.2006.10.030 (Paris-Sud University, 2007).

By Ki is commonly meant the equilibrium dissociation constant of an inhibitor or competing ligand from its target.

The experiment addresses Triosephosphate isomerase (Homo sapiens, UniProt P60174). As to the kind of experiment: Inhibition of triosephosphate isomerase.

Structures are written as SMILES.

Triosephosphate isomerase, sequence (P60174 whole entry): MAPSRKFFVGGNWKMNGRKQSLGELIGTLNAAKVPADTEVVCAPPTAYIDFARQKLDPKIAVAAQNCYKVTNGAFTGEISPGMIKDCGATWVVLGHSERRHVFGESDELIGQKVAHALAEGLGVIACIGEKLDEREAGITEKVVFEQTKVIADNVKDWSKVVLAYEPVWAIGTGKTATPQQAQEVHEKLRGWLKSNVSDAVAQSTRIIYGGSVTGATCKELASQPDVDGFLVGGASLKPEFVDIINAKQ

In turn, `NC(CC(=O)NO)P(=O)(O)O` (stereo not given) [hydrogen [1-azaniumyl-2-(hydroxycarbamoyl)ethyl]phosphonate] returned an inhibitory constant (Ki) of over 500 µM.

Consider `O=C(COP(=O)(O)O)NO` [2-(hydroxyamino)-2-oxoethyl dihydrogen phosphate], for which the Ki was 3 µM.

In turn, `NNC(=O)COP(=O)(O)O` [Phosphoric acid monohydrazinocarbonylmethyl ester] displayed a Ki of 111 µM.

With `O=C(CCP(=O)(O)O)NO` [hydrogen 3-(hydroxyamino)-3-oxopropylphosphonate], the Ki amounted to 160 µM.

`N=C(COP(=O)(O)O)NO` [Phosphoric acid mono-(N-hydroxycarbamimidoylmethyl) ester] showed a Ki of 4.5 µM.
